Data as given in patent US20260373165A1, “PHARMACEUTICAL COMBINATIONS AND COMPOSITIONS, AND METHODS OF USE THEREOF” (SHENZHEN HIGHTIDE BIOPHARMACEUTICAL LTD., priority 2022, published 2026).

How the values were obtained:
Assay type in all cases: in vivo, mouse (C57BL/6J male, 60% HFD DIO)
[1] = Example 1: food intake within 24 h; details: during administration period, vs model control group
From the text: (§1) After 5-week-old C57BL/6J male mice were acclimatized for 1 week, the weight of each mouse was weighed, and the mice were randomly divided into a control group and a model group by taking the weight as a main index, where 12 mice in the control group were fed with common feed (CD), and the mice in the remaining model group were fed with 60% high-fat feed (60% HFD) for 10-12 weeks to construct a DIO obesity model, with the average body weight being not less than 40 g. The mice fed with 60% HFD were grabbed and acclimatized with a solvent for 3 days, where the acclimatization with a solvent was performed by oral gavage of 0.5% CMC-Na, twice daily.
The food intake, the body weight, the body fat ratio, and the insulin level of the mice were respectively measured, followed by fasting blood glucose level, and the mice were randomly grouped according to Table 3 by taking the body weight as an index, and the remaining ungrouped mice were euthanized. After grouping, each group of mice was administered according to Table 3, the day of administration was defined as DO, and the administration volume of each drug was determined based on the results obtained by the calculation of 5 μL/g× mouse body weight (g). […]

[2] = Example 1: body fat mass by MRI after 25 days
From the text: as §1
(§2) The food intake, the body weight, the body fat ratio, and the insulin level of the mice were respectively measured, followed by fasting blood glucose level, and the mice were randomly grouped according to Table 3 by taking the body weight as an index, and the remaining ungrouped mice were euthanized. After grouping, each group of mice was administered according to Table 3, the day of administration was defined as DO, and the administration volume of each drug was determined based on the results obtained by the calculation of 5 μL/g× mouse body weight (g).
(§3) For the combined administration group, the total administration volume was the sum of the administration volumes of two single drugs, and the administration sequence and the administration time were kept consistent at each administration. The mice were continuously fed with high-fat feed during the administration period until the administration was finished. During administration, 2 food intakes were measured per week (difference in feed weights at an interval of 24 h was measured); each group of mice was weighed once daily; postprandial blood glucose levels were measured weekly; blood was collected from the tail tip on day 6 and day 20, respectively, so as to measure fasting blood glucose levels once (blood was collected after fasting from 8:00 am to […]); on day 25 of administration, the body fat ratio and the lean mass of each group of mice were measured by MRI (the measurement period was kept consistent with that before grouping); after 4 weeks of administration intervention (day 28), each group of mice was fasted for 6 h and subjected to OGTT (0 min, 15 min, 30 min, 60 min, 90 min, 120 min) to detect their blood glucose levels, and meanwhile subjected to blood sampling via submaxillary vein (0 min, 15 min, 30 min, about 30 μL of blood sampled each time), and then the blood plasma was separated for detecting the insulin level by ELISA, where the separated blood plasma was more than 10 μL; the next day (D29) at the end of administration was set as the test endpoint, and the mice were fasted for 6 h in the morning and subjected to fasting blood glucose level measurement; subsequently, the mice were euthanized with CO2, blood was collected from the heart of each mouse for analysis, and each group of mice was dissected; the liver and subcutaneous, epididymal and mesenteric fat was collected, photographed and weighed, respectively.
After 25 days of administration, the body weight, the body fat mass and the body fat ratio of each animal in groups G1 to G6 were measured and averaged for each group, and the results are shown in Table 5 below, FIG. 4 and FIG. 5.

[3] = Example 1: lean mass by MRI after 25 days
From the text: as §1, §2, §3
After 25 days of administration, the body weight, the Lean weight and the lean ratio of each animal in groups G1 to G5 were measured and averaged for each group, and the results are shown in Table 7 below, FIG. 9 and FIG. 10.

[4] = Example 1: body weight and body weight change rate, combined administration of HTD1801 and empagliflozin in DIO obesity model; details: semaglutide 10 nmol/kg s.c. Q3D
From the text: as §1, §2, §3

[5] = Example 1: fasting blood glucose level; details: semaglutide 10 nmol/kg s.c. Q3D
From the text: as §1, §2
For the combined administration group, the total administration volume was the sum of the administration volumes of two single drugs, and the administration sequence and the administration time were kept consistent at each administration. The mice were continuously fed with high-fat feed during the administration period until the administration was finished. […]
After 20 days of administration, fasting blood glucose level results were measured for each group of animals and are shown in Table 8 below and FIG. 11.

[6] = Example 1: oral glucose tolerance test (OGTT), blood glucose; details: HTD1801 200 mpk, empagliflozin 10 mpk (reduced after week 2), semaglutide 10 nmol/kg s.c. Q3D
From the text: as §1, §2, §3

[7] = mean, after 25 days of administration, HTD1801 200 mpk, empagliflozin 10 mpk in last 2 weeks (300/15 mpk before), semaglutide 10 nmol/kg s.c. Q3D
[8] = mean, after 25 days of administration, HTD1801 200 mpk, empagliflozin 10 mpk in last 2 weeks (300/15 mpk before)
[9] = day 0 (baseline), HTD1801 300 mpk, empagliflozin 15 mpk gavage QD
[10] = day 1, HTD1801 300 mpk, empagliflozin 15 mpk gavage QD
[11] = day 2, HTD1801 300 mpk, empagliflozin 15 mpk gavage QD
[12] = day 3, HTD1801 300 mpk, empagliflozin 15 mpk gavage QD
[13] = day 4, HTD1801 300 mpk, empagliflozin 15 mpk gavage QD
[14] = day 5, HTD1801 300 mpk, empagliflozin 15 mpk gavage QD
[15] = day 6, HTD1801 300 mpk, empagliflozin 15 mpk gavage QD
[16] = day 7, HTD1801 300 mpk, empagliflozin 15 mpk gavage QD
[17] = day 8, HTD1801 300 mpk, empagliflozin 15 mpk gavage QD
[18] = day 9, HTD1801 300 mpk, empagliflozin 15 mpk gavage QD
[19] = day 10, HTD1801 300 mpk, empagliflozin 15 mpk gavage QD
[20] = day 11, HTD1801 300 mpk, empagliflozin 15 mpk gavage QD
[21] = day 12, HTD1801 300 mpk, empagliflozin 15 mpk gavage QD
[22] = day 13, HTD1801 300 mpk, empagliflozin 15 mpk gavage QD
[23] = day 14, HTD1801 300 mpk, empagliflozin 15 mpk gavage QD
[24] = day 15, HTD1801 200 mpk, empagliflozin 10 mpk (reduced after week 2) gavage QD
[25] = day 16, HTD1801 200 mpk, empagliflozin 10 mpk (reduced after week 2) gavage QD
[26] = day 17, HTD1801 200 mpk, empagliflozin 10 mpk (reduced after week 2) gavage QD
[27] = day 18, HTD1801 200 mpk, empagliflozin 10 mpk (reduced after week 2) gavage QD
[28] = day 19, HTD1801 200 mpk, empagliflozin 10 mpk (reduced after week 2) gavage QD
[29] = day 20, HTD1801 200 mpk, empagliflozin 10 mpk (reduced after week 2) gavage QD
[30] = day 21, HTD1801 200 mpk, empagliflozin 10 mpk (reduced after week 2) gavage QD
[31] = day 22, HTD1801 200 mpk, empagliflozin 10 mpk (reduced after week 2) gavage QD
[32] = day 23, HTD1801 200 mpk, empagliflozin 10 mpk (reduced after week 2) gavage QD
[33] = day 24, HTD1801 200 mpk, empagliflozin 10 mpk (reduced after week 2) gavage QD
[34] = day 25, HTD1801 200 mpk, empagliflozin 10 mpk (reduced after week 2) gavage QD
[35] = day 26, HTD1801 200 mpk, empagliflozin 10 mpk (reduced after week 2) gavage QD
[36] = day 27, HTD1801 200 mpk, empagliflozin 10 mpk (reduced after week 2) gavage QD
[37] = day 28, HTD1801 200 mpk, empagliflozin 10 mpk (reduced after week 2) gavage QD

COc1ccc2cc3[n+](cc2c1OC)CCc1cc2c(cc1-3)OCO2.C[C@H](CCC(=O)[O-])[C@H]1CC[C@H]2[C@@H]3[C@@H](O)C[C@@H]4C[C@H](O)CC[C@]4(C)[C@H]3CC[C@]12C [HTD1801, berberine ursodeoxycholate]
food intake within 24 h (in words) [1]: lower than the food intake for the model control group
body fat mass and body fat ratio (in words) ([2]; after 25 days, relative to control group G2): decreased
Body weight ([2]; mean, after 25 days of administration (Table 5), HTD1801 200 mpk, empagliflozin 10 mpk in last 2 weeks (300/15 mpk before), semaglutide 10 nmol/kg s.c. Q3D): 40.10 g
Body fat ratio [2, 7]: 40.12%
Fat (body fat mass) [2, 7]: 16.23 g
lean mass (in words) ([3]; after 25 days, relative to model control group G2): increased
Body weight ([3]; mean, after 25 days of administration (Table 7), HTD1801 200 mpk, empagliflozin 10 mpk in last 2 weeks (300/15 mpk before)): 40.10 g
Lean (lean mass) [3, 8]: 7.50 g
Lean ratio [3, 8]: 19.02%
body weight change (in words) ([4]; after 14 days, reduced dose: HTD1801 200 mpk, empagliflozin 10 mpk): slight rebound
Body weight (mean) [4, 9]: 43.6 g
Body weight change rate [4, 9]: 0.0%
Body weight (mean) [4, 10]: 42.9 g
Body weight change rate [4, 10]: −1.6%
Body weight (mean) [4, 11]: 43.1 g
Body weight change rate [4, 11]: −1.2%
Body weight (mean) [4, 12]: 42.3 g
Body weight change rate [4, 12]: −3.0%
Body weight (mean) [4, 13]: 42.3 g
Body weight change rate [4, 13]: −2.9%
Body weight (mean) [4, 14]: 42.5 g
Body weight change rate [4, 14]: −2.6%
Body weight (mean) [4, 15]: 42.0 g
Body weight change rate [4, 15]: −3.8%
Body weight (mean) [4, 16]: 41.5 g
Body weight change rate [4, 16]: −4.9%
Body weight (mean) [4, 17]: 40.8 g
Body weight change rate [4, 17]: −6.2%
Body weight (mean) [4, 18]: 40.7 g
Body weight change rate [4, 18]: −6.6%
Body weight (mean) [4, 19]: 40.7 g
Body weight change rate [4, 19]: −6.5%
Body weight (mean) [4, 20]: 40.6 g
Body weight change rate [4, 20]: −6.8%
Body weight (mean) [4, 21]: 40.8 g
Body weight change rate [4, 21]: −6.3%
Body weight (mean) [4, 22]: 40.4 g
Body weight change rate [4, 22]: −7.1%
Body weight (mean) [4, 23]: 39.7 g
Body weight change rate [4, 23]: −8.7%
Body weight (mean) [4, 24]: 39.5 g
Body weight change rate [4, 24]: −9.0%
Body weight (mean) [4, 25]: 39.6 g
Body weight change rate [4, 25]: −8.8%
Body weight (mean) [4, 26]: 39.4 g
Body weight change rate [4, 26]: −9.3%
Body weight (mean) [4, 27]: 38.9 g
Body weight change rate [4, 27]: −10.3%
Body weight (mean) [4, 28]: 38.9 g
Body weight change rate [4, 28]: −10.3%
Body weight (mean) [4, 29]: 39.2 g
Body weight change rate [4, 29]: −8.4%
Body weight (mean) [4, 30]: 39.5 g
Body weight change rate [4, 30]: −7.8%
Body weight (mean) [4, 31]: 39.7 g
Body weight change rate [4, 31]: −7.2%
Body weight (mean) [4, 32]: 40.2 g
Body weight change rate [4, 32]: −6.0%
Body weight (mean) [4, 33]: 40.5 g
Body weight change rate [4, 33]: −5.4%
Body weight (mean) [4, 34]: 40.7 g
Body weight change rate [4, 34]: −4.8%
Body weight (mean) [4, 35]: 40.1 g
Body weight change rate [4, 35]: −6.5%
Body weight (mean) [4, 36]: 40.2 g
Body weight change rate [4, 36]: −6.2%
Body weight (mean) [4, 37]: 39.5 g
Body weight change rate [4, 37]: −7.9%
body weight change / weight loss effect (in words) ([4]; within 14 days, HTD1801 300 mpk, empagliflozin 15 mpk gavage QD): continuously decreased over time
Mean fasting blood glucose level [5, 15]: 7.9 mmol/L
Mean fasting blood glucose level ([5]; day 20, HTD1801 200 mpk, empagliflozin 10 mpk (reduced after week 2)): 8.4 mmol/L
OGTT blood glucose level ([6]; day 28, 0 min): 10.65 mmol/L
OGTT blood glucose level ([6]; day 28, 15 min): 19.88 mmol/L
OGTT blood glucose level ([6]; day 28, 30 min): 20.04 mmol/L
OGTT blood glucose level ([6]; day 28, 60 min): 23.48 mmol/L
OGTT blood glucose level ([6]; day 28, 90 min): 19.88 mmol/L
OGTT blood glucose level ([6]; day 28, 120 min (head printed "12 0min")): 22.22 mmol/L
